Laboratory results from patent publication US20250144172A1, “ANTI-FIBROTIC SIALIDASE INHIBITOR COMPOUNDS AND METHODS OF USE” (The Texas A&M University System, priority 2016, published 2025).
Where two headings read alike, the source gives them in different places.

Tests used:
human NEU1 = human NEU1 (Homo sapiens (Human), UniProt Q99519); experiment: human NEU1 sialidase inhibition
human NEU3 = human NEU3 (Homo sapiens (Human), UniProt Q9UQ49); experiment: human NEU3 sialidase inhibition
human NEU4 = human NEU4 (Homo sapiens (Human), UniProt Q8WWR8); experiment: human NEU4 sialidase inhibition
human NEU2 = human NEU2 (Homo sapiens (Human), UniProt Q9Y3R4); experiment: human NEU2 sialidase inhibition; settings: for IC50: read-out: NEU2 IC50, human NEU2
[1] = read-out: NEU1 IC50, human NEU1
[2] = read-out: NEU3 IC50, human NEU3
[3] = read-out: NEU4 IC50, human NEU4

Chain of human NEU3 (Q9UQ49 whole entry): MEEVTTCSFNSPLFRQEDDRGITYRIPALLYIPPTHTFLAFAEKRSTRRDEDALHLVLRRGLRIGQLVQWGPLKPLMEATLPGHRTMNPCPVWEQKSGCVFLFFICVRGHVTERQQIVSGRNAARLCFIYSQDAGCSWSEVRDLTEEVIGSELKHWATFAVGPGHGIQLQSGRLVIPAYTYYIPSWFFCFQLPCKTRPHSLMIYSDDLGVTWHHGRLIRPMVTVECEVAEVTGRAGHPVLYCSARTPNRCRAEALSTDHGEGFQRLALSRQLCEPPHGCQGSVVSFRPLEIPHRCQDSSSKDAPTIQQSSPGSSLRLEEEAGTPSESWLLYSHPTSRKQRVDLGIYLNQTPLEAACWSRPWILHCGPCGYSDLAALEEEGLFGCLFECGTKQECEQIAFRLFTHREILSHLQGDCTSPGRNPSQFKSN
Chain of human NEU4 (Q8WWR8 whole entry): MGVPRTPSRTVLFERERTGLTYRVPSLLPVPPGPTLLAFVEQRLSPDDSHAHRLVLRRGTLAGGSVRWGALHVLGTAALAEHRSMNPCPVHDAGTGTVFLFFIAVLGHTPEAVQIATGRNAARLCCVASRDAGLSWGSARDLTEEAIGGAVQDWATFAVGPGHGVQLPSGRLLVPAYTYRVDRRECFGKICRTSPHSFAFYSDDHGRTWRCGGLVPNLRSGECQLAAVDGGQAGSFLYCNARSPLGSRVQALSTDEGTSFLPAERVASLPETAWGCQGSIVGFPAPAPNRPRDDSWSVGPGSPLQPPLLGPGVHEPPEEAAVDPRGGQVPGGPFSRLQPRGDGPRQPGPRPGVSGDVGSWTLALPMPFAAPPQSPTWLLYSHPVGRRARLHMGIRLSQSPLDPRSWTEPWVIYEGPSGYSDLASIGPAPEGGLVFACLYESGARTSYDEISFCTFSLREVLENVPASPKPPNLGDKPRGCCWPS
Chain of human NEU2 (Q9Y3R4 whole entry): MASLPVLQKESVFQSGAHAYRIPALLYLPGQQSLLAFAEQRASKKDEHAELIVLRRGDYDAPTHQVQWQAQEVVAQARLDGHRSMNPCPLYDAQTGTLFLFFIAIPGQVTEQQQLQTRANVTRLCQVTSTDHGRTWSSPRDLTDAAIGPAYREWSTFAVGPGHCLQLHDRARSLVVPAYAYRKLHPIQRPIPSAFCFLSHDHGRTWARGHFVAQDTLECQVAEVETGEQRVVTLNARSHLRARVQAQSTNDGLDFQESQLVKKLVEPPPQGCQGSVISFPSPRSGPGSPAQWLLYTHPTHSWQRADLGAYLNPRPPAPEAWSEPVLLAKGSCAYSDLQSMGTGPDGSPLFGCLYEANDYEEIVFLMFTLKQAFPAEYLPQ

| Molecule | IC50 (human NEU1; [1]) [µM] | IC50 (human NEU3; [2]) [µM] | IC50 (human NEU4; [3]) [µM] | other results |
| --- | --- | --- | --- | --- |
| CC(=O)N[C@@H]1C(N=[N+]=[N-])C=C(C(=O)O)OC1C(O)C(O)CO (stereo partly shown) [Compound 37] |  |  |  | IC50 (human NEU1): 360 ± 50 µM; IC50 (human NEU3; NEU3 IC50, human NEU3): 54 ± 5 µM; IC50 (human NEU4): 1000 ± 60 µM |
| CC(=O)N[C@@H]1C(N=[N+]=[N-])C=C(C(=O)O)OC1CNOCc1ccccc1 (stereo partly shown) [Compound 41] |  |  |  | IC50 (human NEU3; NEU3 IC50, human NEU3): 24 ± 2 µM |
| CC(=O)N[C@H]1[C@H]([C@H](O)[C@H](O)Cn2cc(COc3ccccc3)nn2)OC(C(=O)O)=C[C@@H]1O [Compound 20] |  | 45 ± 3 |  |  |
| CC(=O)N[C@H]1[C@H]([C@H](O)[C@H](O)Cn2cc(C(C)(C)O)nn2)OC(C(=O)O)=C[C@@H]1O [Compound 24] |  | 300 ± 500 |  |  |
| COC[C@@H](O)[C@@H](O)[C@@H]1OC(C(=O)O)=C[C@H](O)[C@H]1NC(C)=O [Compound 35] |  |  |  | IC50 (human NEU2): 410 µM |
| CC(=O)NC[C@H](O)[C@H](O)[C@@H]1OC(C(=O)O)=C[C@H](O)[C@H]1NC(C)=O [Compound 2] | 58 | > 1000 | 580 |  |
| CCC(CC)O[C@@H]1CC(C(=O)O)C=C(n2cc(C(C)(C)O)nn2)[C@H]1NC(C)=O (stereo partly shown) [Compound 30] |  | 640 ± 210 |  |  |
| CC(=O)N[C@H]1[C@H]([C@@H](O)[C@@H](O)CNC(=O)CC(C)C)OC(C(=O)O)=C[C@@H]1O [Compound 7] | 565 | > 1000 | > 1000 |  |
| O=C(Cn1cc(-c2ccccc2)nn1)N[C@@H]1C(O)C=C(C(=O)O)OC1C(O)C(O)CO (stereo partly shown) [Compound 50] |  |  |  | IC50 (human NEU4): 250 ± 40 µM |
| CC(=O)N[C@H]1[C@H]([C@H](O)[C@H](O)Cn2cc(CCCO)nn2)OC(C(=O)O)=C[C@@H]1O [Compound 23] |  | 500 ± 200 |  |  |
| CC(=O)N[C@@H]1C(N=[N+]=[N-])C=C(C(=O)O)OC1CN(Cc1ccccc1)OCc1ccccc1 (stereo partly shown) [Compound 42] |  |  |  | IC50 (human NEU3; NEU3 IC50, human NEU3): 24 ± 11 µM; IC50 (human NEU4): 350 ± 180 µM |
| 2,6-Anhydro-3,5-dideoxy-5-glycolylamido-D-glycero-D-galactonon-2-enonic acid [Compound 39] |  |  |  | IC50 (human NEU2): 34 ± 4 µM |
| CC(=O)N[C@@H]1[C@@H](O)C=C(C(=O)O)C[C@H]1OCCCO [Compound 13] |  |  |  | Ki (human NEU2): 740 µM |
| CCOC(OCC)c1cn(C[C@@H](O)[C@@H](O)[C@@H]2OC(C(=O)O)=C[C@H](O)[C@H]2NC(C)=O)nn1 [Compound 19] |  | 130 ± 20 |  |  |
| CC(=O)N[C@H]1[C@H]([C@H](O)[C@H](O)Cn2ccnn2)OC(C(=O)O)=C[C@@H]1O [Compound 15] |  | 70 ± 20 |  |  |
| [N-]=[N+]=NCC(=O)N[C@@H]1C(O)C=C(C(=O)O)OC1C(O)C(O)CO (stereo partly shown) [Compound 49] |  |  |  | IC50 (human NEU1): 29 ± 0.5 µM; IC50 (human NEU3; NEU3 IC50, human NEU3): 4.7 ± 0.3 µM; IC50 (human NEU4): 4.5 ± 0.1 µM |
| CC(=O)N[C@H]1[C@H]([C@H](O)[C@H](O)Cn2cc(CCO)nn2)OC(C(=O)O)=C[C@@H]1O [Compound 22] |  | 400 ± 600 |  |  |

Continued, in another order:

| IC50 (human NEU1; [1]) [µM] | IC50 (human NEU3; [2]) [µM] | IC50 (human NEU4; [3]) [µM] | Molecule | other results |
| --- | --- | --- | --- | --- |
| 660 ± 20 | 39 ± 1 | 2.1 ± 0.1 | CC(=O)N[C@H]1C([C@@H](O)[C@@H](O)Cn2cc(CCCO)nn2)OC(C(=O)O)=C[C@@H]1O (stereo partly shown) [Compound 56] |  |
| > 1000 |  | 4 ± 0.3 | CC(=O)N[C@H]1C([C@@H](O)[C@@H](O)Cn2cc(C(C)(C)O)nn2)OC(C(=O)O)=C[C@@H]1O (stereo partly shown) [Compound 57] |  |
| 170 ± 20 | 90 ± 10 | 3.6 ± 0.3 | CCOc1cn(C[C@H](O)[C@H](O)C2OC(C(=O)O)=C[C@H](O)[C@H]2NC(C)=O)nn1 (stereo partly shown) [Compound 52] |  |
| > 1000 | 38 ± 2 | 0.81 ± 0.04 | CC(=O)N[C@H]1C([C@@H](O)[C@@H](O)Cn2cc(CCO)nn2)OC(C(=O)O)=C[C@@H]1O (stereo partly shown) [Compound 55] |  |
| 200 ± 30 | 4.6 ± 0.2 | 2.3 ± 0.2 | CC(=O)N[C@H]1C([C@@H](O)[C@@H](O)Cn2cc(-c3ccccc3)nn2)OC(C(=O)O)=C[C@@H]1O (stereo partly shown) [Compound 51] |  |
|  | 5.5 ± 0.6 | 1.7 ± 0.2 | CC(=O)N[C@H]1C([C@@H](O)[C@@H](O)Cn2cc(OCc3ccccc3)nn2)OC(C(=O)O)=C[C@@H]1O (stereo partly shown) [Compound 53] | IC50 (human NEU2): 800 ± 70 µM |
